Data published in publication PMC12136037, “Type II kinase inhibitors that target Parkinson’s disease–associated LRRK2” (Science Advances, 2025).

Tests used:
Assay in all cases: DSF 100 kinase selectivity screen;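 further: compound tested at 20 µM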
Type in all cases: binding
[1] = target: T1, ~100 representative kinases (Homo sapiens, UniProt O75582); settings: Protein RPS6KA5; DSF; average of three replicates
T1 construct: Recombinant protein kinase domains with a concentration of 2 μM
Outline: (§1)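 Each kinase domain, at 2 μM, is mixed with 20 μM test compound and SYPRO Orange in Hepes (20 mM, pH 7.5) with 500 mM NaCl. Temperature is then raised at 3°C/min and fluorescence-monitored unfolding yields the melting temperature change, ΔTm in degrees Celsius.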

[2] = target: T2, ~100 representative kinases (Homo sapiens, UniProt P52564); settings: protein MAP2K6; average of three replicates
T2 construct: Recombinant protein kinase domains with a concentration of 2 μM
T2 sequence (P52564 1-334): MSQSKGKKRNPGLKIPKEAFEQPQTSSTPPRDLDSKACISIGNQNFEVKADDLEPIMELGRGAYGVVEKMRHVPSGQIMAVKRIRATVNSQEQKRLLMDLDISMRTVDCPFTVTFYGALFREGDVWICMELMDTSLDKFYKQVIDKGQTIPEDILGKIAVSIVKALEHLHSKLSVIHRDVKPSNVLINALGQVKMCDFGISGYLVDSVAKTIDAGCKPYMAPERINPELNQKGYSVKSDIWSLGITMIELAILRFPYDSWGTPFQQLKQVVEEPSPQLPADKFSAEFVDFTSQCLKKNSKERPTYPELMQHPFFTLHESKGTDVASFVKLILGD
Outline: as §1

[3] = target: T3, ~100 representative kinases (Homo sapiens, UniProt P54756); settings: Protein EPHA5; average of three replicates
T3 construct: Recombinant protein kinase domains with a concentration of 2 μM
T3 sequence (P54756 25-1037): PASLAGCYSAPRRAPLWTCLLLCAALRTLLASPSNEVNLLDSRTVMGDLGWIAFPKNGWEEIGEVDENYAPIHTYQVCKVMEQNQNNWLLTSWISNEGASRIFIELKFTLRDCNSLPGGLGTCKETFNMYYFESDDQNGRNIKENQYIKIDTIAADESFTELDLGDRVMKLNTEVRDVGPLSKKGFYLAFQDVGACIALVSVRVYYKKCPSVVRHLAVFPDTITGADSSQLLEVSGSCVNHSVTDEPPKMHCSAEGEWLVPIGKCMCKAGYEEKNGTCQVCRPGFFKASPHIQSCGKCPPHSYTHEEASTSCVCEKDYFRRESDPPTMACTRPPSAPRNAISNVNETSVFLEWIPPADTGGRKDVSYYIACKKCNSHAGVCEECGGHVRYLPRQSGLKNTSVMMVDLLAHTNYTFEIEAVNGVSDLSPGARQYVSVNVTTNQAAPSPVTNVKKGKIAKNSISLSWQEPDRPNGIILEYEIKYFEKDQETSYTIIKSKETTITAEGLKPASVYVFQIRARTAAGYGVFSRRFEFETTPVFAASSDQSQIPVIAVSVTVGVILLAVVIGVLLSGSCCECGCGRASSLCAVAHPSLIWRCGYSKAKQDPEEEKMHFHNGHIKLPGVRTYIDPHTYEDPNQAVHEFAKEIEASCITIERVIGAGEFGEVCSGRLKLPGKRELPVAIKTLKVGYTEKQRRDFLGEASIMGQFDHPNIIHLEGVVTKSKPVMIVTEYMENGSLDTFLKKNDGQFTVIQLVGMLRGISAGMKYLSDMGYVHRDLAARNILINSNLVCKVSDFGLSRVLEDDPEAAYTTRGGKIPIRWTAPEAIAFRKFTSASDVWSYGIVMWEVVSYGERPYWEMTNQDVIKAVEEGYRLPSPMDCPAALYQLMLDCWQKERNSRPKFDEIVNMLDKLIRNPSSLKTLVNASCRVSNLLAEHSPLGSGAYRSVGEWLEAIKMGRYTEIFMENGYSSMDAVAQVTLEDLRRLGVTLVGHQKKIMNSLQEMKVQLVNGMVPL
Outline: as §1

[4] = target: T4, ~100 representative kinases (Homo sapiens, UniProt P49137); settings: protein MAPKAPK2; average of three replicates
T4 construct: Recombinant protein kinase domains with a concentration of 2 μM
T4 sequence (P49137 whole entry, the tested form may be a part): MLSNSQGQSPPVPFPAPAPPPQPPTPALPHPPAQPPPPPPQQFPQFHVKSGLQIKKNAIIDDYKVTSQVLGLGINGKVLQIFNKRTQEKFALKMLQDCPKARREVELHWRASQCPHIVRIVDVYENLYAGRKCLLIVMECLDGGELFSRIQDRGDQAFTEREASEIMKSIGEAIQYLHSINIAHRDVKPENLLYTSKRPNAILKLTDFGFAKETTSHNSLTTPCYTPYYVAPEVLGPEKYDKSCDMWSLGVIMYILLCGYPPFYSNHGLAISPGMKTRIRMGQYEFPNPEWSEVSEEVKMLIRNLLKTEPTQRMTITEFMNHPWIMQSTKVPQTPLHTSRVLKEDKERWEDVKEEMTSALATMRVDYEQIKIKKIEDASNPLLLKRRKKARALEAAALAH
Outline: as §1

[5] = target: T5, ~100 representative kinases (Homo sapiens, UniProt Q9Y243); settings: Protein AKT3; average of three replicates
T5 construct: Recombinant protein kinase domains with a concentration of 2 μM
T5 sequence (Q9Y243 whole entry, the tested form may be a part): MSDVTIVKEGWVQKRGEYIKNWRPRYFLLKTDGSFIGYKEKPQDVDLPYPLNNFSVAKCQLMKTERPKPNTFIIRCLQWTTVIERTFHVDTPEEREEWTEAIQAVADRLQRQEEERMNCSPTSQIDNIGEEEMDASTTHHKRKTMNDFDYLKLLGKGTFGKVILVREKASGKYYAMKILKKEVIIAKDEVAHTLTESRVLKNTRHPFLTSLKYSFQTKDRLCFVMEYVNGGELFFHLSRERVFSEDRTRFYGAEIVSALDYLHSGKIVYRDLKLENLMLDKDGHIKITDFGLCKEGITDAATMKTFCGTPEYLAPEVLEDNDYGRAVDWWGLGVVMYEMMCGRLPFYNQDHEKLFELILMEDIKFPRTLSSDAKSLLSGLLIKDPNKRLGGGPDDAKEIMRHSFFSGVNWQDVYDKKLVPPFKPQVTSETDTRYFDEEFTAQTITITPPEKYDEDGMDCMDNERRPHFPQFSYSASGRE
Outline: as §1

[6] = target: T6, ~100 representative kinases (Homo sapiens, UniProt P19784); settings: Protein CK2A2; average of three replicates
T6 construct: Recombinant protein kinase domains with a concentration of 2 μM
T6 sequence (P19784 whole entry, the tested form may be a part): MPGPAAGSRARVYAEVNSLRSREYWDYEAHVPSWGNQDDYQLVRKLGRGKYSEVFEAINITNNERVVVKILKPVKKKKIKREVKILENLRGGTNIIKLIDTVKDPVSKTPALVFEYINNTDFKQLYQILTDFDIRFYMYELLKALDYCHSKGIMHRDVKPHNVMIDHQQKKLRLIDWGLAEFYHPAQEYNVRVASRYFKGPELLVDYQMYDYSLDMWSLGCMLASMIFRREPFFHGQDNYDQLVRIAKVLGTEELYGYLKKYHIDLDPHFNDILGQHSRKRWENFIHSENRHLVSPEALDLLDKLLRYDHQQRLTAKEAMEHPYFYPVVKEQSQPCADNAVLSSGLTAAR
Outline: as §1

[7] = target: T7, ~100 representative kinases (Homo sapiens, UniProt Q13873); settings: Protein BMPR2; average of three replicates
T7 construct: Recombinant protein kinase domains with a concentration of 2 μM
T7 sequence (Q13873 27-1038): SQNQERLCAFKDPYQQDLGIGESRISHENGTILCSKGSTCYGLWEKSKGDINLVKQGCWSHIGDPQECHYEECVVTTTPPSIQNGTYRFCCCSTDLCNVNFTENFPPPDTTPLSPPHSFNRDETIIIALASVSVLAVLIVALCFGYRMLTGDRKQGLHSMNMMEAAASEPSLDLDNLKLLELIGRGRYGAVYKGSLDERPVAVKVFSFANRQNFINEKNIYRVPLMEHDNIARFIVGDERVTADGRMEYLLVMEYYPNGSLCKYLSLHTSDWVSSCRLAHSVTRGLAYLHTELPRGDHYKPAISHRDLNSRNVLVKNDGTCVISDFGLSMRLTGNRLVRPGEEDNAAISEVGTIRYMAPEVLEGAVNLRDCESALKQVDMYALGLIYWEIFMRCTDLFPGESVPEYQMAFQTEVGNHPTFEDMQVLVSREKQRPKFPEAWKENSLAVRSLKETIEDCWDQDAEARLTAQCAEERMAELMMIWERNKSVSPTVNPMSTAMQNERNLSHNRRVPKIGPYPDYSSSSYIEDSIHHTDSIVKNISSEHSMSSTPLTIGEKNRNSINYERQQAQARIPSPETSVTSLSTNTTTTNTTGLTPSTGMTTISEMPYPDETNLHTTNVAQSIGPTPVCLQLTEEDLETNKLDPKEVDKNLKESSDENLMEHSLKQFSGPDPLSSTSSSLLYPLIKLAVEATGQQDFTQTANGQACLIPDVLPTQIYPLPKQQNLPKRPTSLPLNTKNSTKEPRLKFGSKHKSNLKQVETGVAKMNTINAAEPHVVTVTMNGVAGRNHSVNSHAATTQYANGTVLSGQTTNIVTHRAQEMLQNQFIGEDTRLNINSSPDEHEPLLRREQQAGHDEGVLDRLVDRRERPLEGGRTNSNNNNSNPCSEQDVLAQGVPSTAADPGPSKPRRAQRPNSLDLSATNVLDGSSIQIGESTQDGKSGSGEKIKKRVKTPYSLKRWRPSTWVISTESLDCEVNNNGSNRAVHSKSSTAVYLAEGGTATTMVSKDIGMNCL
Outline: as §1

[8] = target: T8, ~100 representative kinases (Homo sapiens, UniProt Q16539); settings: protein MAPK14; average of three replicates
T8 construct: Recombinant protein kinase domains with a concentration of 2 μM
T8 sequence (Q16539 whole entry, the tested form may be a part): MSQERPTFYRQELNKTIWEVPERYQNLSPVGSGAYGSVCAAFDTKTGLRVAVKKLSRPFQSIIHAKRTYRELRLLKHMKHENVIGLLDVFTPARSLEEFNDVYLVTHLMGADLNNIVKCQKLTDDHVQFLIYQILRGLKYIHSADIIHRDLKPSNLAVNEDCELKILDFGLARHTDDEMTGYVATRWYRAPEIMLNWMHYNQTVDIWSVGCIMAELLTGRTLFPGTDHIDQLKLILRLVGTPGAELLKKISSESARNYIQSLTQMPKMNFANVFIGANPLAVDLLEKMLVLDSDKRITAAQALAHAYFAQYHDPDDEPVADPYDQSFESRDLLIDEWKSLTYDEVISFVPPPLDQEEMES
Outline: as §1

[9] = target: T9, ~100 representative kinases (Homo sapiens, UniProt P15735); settings: protein PHKG2; average of three replicates
T9 construct: Recombinant protein kinase domains with a concentration of 2 μM
T9 sequence (P15735 1-406): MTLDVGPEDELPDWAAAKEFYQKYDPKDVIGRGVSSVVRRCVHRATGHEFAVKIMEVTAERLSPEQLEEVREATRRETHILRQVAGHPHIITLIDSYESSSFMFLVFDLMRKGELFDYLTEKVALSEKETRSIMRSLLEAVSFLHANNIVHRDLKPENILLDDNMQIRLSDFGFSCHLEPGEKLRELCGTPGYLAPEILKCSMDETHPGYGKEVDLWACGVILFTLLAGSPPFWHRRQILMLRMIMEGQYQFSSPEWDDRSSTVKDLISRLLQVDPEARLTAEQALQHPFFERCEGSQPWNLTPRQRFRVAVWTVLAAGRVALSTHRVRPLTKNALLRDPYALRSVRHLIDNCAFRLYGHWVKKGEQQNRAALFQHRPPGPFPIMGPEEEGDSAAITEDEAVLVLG
Outline: as §1

[10] = target: T10, ~100 representative kinases (Homo sapiens, UniProt O95747); settings: protein OSR1; average of three replicates
T10 construct: Recombinant protein kinase domains with a concentration of 2 μM
T10 sequence (O95747 whole entry, the tested form may be a part): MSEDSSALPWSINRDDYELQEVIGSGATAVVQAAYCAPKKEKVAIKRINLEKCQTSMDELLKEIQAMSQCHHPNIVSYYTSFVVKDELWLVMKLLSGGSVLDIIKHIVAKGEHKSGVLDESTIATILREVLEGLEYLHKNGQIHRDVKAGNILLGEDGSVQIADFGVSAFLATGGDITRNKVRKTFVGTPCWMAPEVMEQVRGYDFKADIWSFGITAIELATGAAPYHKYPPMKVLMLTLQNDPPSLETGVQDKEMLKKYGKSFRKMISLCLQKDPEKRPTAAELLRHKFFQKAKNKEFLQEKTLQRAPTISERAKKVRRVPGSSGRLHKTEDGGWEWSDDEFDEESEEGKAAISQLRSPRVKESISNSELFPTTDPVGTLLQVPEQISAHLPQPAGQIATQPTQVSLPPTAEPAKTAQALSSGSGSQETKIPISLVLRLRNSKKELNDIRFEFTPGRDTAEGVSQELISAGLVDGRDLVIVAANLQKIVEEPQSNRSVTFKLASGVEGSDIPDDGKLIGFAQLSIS
Outline: as §1

[11] = target: T11, ~100 representative kinases (Homo sapiens, UniProt O96017); settings: Protein CHEK2; average of three replicates
T11 construct: Recombinant protein kinase domains with a concentration of 2 μM
T11 sequence (O96017 whole entry, the tested form may be a part): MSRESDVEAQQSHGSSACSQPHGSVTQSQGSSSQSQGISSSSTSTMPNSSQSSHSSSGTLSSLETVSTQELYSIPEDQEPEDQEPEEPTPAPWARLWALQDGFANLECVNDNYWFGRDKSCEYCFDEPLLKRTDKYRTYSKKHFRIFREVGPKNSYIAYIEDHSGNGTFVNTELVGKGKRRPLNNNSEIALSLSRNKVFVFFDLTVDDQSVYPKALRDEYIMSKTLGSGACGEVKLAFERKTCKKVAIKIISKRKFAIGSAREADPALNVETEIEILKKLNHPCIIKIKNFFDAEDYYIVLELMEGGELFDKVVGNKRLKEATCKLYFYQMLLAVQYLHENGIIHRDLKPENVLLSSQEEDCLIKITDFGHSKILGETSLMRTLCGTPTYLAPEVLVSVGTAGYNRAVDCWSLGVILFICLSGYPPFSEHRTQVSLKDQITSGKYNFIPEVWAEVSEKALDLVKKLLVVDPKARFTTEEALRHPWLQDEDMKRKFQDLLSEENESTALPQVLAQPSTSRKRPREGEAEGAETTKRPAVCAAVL
Outline: as §1

[12] = target: T12, ~100 representative kinases (Homo sapiens, UniProt Q9UEW8); settings: Protein STK39; DSF; average of three replicates
T12 construct: Recombinant protein kinase domains with a concentration of 2 μM
Outline: as §1

[13] = target: T13, ~100 representative kinases (Homo sapiens, UniProt Q13153); settings: protein PAK1; average of three replicates
T13 construct: Recombinant protein kinase domains with a concentration of 2 μM
T13 sequence (Q13153 whole entry, the tested form may be a part): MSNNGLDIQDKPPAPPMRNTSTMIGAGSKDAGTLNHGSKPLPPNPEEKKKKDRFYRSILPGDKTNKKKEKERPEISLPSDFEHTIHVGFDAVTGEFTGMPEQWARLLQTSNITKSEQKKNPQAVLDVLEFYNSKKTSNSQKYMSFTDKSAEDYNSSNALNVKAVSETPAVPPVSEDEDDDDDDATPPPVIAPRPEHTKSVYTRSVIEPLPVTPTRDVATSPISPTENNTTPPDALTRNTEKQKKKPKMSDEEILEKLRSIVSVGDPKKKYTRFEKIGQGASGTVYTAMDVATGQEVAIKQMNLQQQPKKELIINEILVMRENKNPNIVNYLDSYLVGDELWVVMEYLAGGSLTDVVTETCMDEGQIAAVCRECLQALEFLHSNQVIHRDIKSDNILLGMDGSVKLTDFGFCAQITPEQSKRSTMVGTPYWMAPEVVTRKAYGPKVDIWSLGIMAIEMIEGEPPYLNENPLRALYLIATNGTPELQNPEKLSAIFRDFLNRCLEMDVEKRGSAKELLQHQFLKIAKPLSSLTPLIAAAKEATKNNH
Outline: as §1

T1 sequence (O75582 whole entry, the tested form may be a part): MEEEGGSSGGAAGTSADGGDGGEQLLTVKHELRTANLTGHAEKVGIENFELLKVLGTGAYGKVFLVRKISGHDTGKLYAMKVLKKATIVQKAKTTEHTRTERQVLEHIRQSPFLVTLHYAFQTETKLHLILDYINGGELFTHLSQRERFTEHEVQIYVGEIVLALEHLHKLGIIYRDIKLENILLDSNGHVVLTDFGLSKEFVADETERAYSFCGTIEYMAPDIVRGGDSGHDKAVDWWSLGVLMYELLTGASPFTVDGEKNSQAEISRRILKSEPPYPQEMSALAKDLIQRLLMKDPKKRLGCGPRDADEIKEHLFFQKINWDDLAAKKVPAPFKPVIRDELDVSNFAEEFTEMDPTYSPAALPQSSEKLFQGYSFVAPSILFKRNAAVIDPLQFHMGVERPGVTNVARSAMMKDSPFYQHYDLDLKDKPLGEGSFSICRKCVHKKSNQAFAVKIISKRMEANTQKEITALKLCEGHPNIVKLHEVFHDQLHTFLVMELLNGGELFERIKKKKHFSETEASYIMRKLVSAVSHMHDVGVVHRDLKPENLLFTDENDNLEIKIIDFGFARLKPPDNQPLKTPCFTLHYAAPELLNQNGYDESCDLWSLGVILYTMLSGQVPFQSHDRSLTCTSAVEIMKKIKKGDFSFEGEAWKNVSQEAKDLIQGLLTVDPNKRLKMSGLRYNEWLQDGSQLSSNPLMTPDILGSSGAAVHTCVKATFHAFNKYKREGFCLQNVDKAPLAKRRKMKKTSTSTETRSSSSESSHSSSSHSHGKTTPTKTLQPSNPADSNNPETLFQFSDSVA

dTm [1] [K]	dTm [2] [K]	dTm [3] [K]	dTm [4] [K]	dTm [5] [K]	dTm [6] [K]	dTm [7] [K]	dTm [8] [K]	dTm [9] [K]	dTm [10] [K]	dTm [11] [K]	dTm [12] [K]	dTm [13] [K]	SMILES
1.80	5.52	-0.48	0.98	-0.25	1.16	-0.0179	-0.35	3.65	1.40	7.39	3.58	-0.88	COc1cc(S(C)(=O)=O)ccc1Nc1nc(N(C)C)c2c(Cl)c[nH]c2n1 [Compound 37]
0.48	1.78	1.86	-0.35	0.68	1.02	0.82	-0.38	0.21	1.41	3.32	1.14	1.05	O=C(Nc1cccc(-c2c[nH]c3ncnc(N4CCOCC4)c23)c1)C1(C(=O)Nc2ccc(F)cc2F)CC1 [Compound 23]
0.69	2.82	-0.41	-0.26	-0.39	1.05	0.44	1.60	0.68	0.42	1.65	1.05	3.04	O=C(Nc1cccc(-c2c[nH]c3ncnc(N4CCOCC4)c23)c1)C1(C(=O)Nc2cccc3c2CCC3)CC1 [Compound 11]
6.52	2.08	1.91	-0.15	0.16	7.05	1.02	0.0252	1.25	1.28	3.05	2.09	1.90	O=C(Nc1ccccc1)C1(C(=O)Nc2cccc(-c3c[nH]c4ncnc(N5CCOCC5)c34)c2)CC1 [Compound 12]
2.79	9.56	-0.96	2.68	0.29	1.00	0.63	-0.75	7.95	1.88	13.85	2.35	-1.33	COc1cc(C(=O)N2CCOCC2)c(F)cc1Nc1nc(N(C)C)c2c(Cl)c[nH]c2n1 [Compound 36]
16.84	1.76	9.59	0.51	0.49	-0.38	0.69	3.86	3.91	4.85	10.72	7.55	5.08	CC(C)(C)c1cc(NC(=O)Nc2cccc(-c3c[nH]c4ncnc(N5CCOCC5)c34)c2)n(-c2ccc3ncccc3c2)n1 [Compound 28]
-1.56	2.96	2.50	0.22	1.04	1.36	1.13	1.31	3.01	0.31	5.34	2.24	5.39	O=C(Nc1cccc(-c2c[nH]c3ncnc(N4CCOCC4)c23)c1)C1(C(=O)Nc2ccc(F)c(Cl)c2)CC1 [Compound 18]
1.58	3.80	5.80	-0.41	-0.0373	-0.08	1.36	5.43	-0.17	1.78	15.46	3.69	1.52	Cc1ccc(C(=O)Nc2ccc(CN3CCN(C)CC3)c(C(F)(F)F)c2)cc1C#Cc1c[nH]c2ncnc(N3CCOCC3)c12 [Compound 1]
6.14	2.36	2.05	-0.12	0.71	8.40	0.95	0.53	2.57	2.20	4.07	1.80	3.52	O=C(Nc1cccc(-c2c[nH]c3ncnc(N4CCOCC4)c23)c1)C1(C(=O)Nc2ccc(F)c(F)c2)CC1 [Compound 17]
6.08	3.38	2.70	-0.94	-0.15	7.91	-0.62	3.30	1.52	1.49	3.80	1.45	5.56	O=C(Nc1cccc(-c2c[nH]c3ncnc(N4CCOCC4)c23)c1)C1(C(=O)Nc2ccc(F)c(Br)c2)CC1 [Compound 19]

SMILES	dTm [1] [K]	dTm [2] [K]	dTm [3] [K]	dTm [4] [K]	dTm [5] [K]	dTm [6] [K]	dTm [7] [K]	dTm [8] [K]	dTm [9] [K]	dTm [10] [K]	dTm [11] [K]	dTm [12] [K]	dTm [13] [K]
C[C@@H]1CN(c2cc(-c3n[nH]c4ccc(OC5(C)CC5)cc34)ncn2)C[C@H](C)O1 [MLi2]	-1.02	0.18	-0.96	-0.23	-0.44	-0.31	0.0116	0.038	4.00	0.07	3.06	0.27	-0.13
Cn1cc(-c2c[nH]c3ncnc(N4CCOCC4)c23)cc1C#N [PFE-360]	0.69	1.09	-0.69	0.0427	-0.26	0.26	2.89	0.53	1.53	-0.14	3.22	-0.25	-0.19
